Results: patent US20190209548A1, “LINKED DIARYL COMPOUNDS WITH ANTICANCER PROPERTIES AND METHODS OF USING THE SAME” (University of Maryland, College Park, priority 2014, published 2019)

What was measured:
MDA-MB-231 = experiment: WST-1 IC50 determination, MDA-MB-231; format: cell-based, human; details: 72 hours, WST-1; for IC50: read-out: Anticancer activity IC50 ± SD, MDA-MB-231
Method: (§1) Cell lines and culturing. The following human cell lines were purchased from ATCC (ATCC, Manassas, Va.): prostate cancer cells (PC-3), triple negative breast cancer cells (MDA-MB-231), ovarian cancer cells (OVCAR-3), normal bone marrow (NBM) and normal fibroblast cells (MCR5A). MDA-MB-231 cells were grown at 37° C. with 5% CO2 atmosphere with DMEM (Life technologies, Carlsbad, Calif.) supplemented with heat-inactivated 10% (V/V) fetal bovine serum. OVCAR-3 and PC-3 cells were grown at 37° C. with 5% CO2 atmosphere with RPMI (Life technologies, Carlsbad, Calif.) supplemented with heat-inactivated 10% (V/V) fetal bovine serum. Cell lines were grown and maintained according to ATCC recommendations.
(§2) IC50 determination. Cell lines were seeded into 96-well plates the afternoon prior to treatment. Cell seeding number was determined by growing cells in log phase growth during drug treatment. Approximately 18 hours later, compounds were semi-serially diluted in dimethyl sulfoxide (DMSO) and then growth medium, and added to cells. Plates were incubated for 72 hours prior to addition of WST-1 (Promega, Madison Wis.). Plates were read after 4 additional hours of incubation at 37° C. using a Bio-Tek Synergy HT plate reader (Bio-Tek, Winooski, Vt.). Data was analyzed, graphed and IC50s generated using GraphPad Prism Software (Graphpad, La Jolla, Calif.).
(§3) IC50 determination: For the determination of IC50 for the azolamide class, the same protocol as described previously was followed.

c-MYC = experiment: FRET melting assay, c-MYC; format: binding; details: dual-labeled DNA 0.2 μM, DMZ analogues 1 μM, potassium cacodylate 60 mM pH 7.2
Method: (§4) Fluorescence resonance energy transfer (FRET) assay to determine Tm in absence and presence of ligands. Dual-labelled DNA was diluted from stock (50 μM) to 400 nM in 60 mM potassium cacodylate buffer (pH 7.2) and then annealed by heating at 85° C. for 10 min followed by cooling to room temperature in the heating block. Compounds were diluted from stock (20 mM in DMSO) to 2 μM in 60 mM cacodylate buffer (pH 7.2). 25 μL annealed DNA was added to 96-well plate followed by 25 μL diluted compounds. The sequences of labelled oligonucleotides were as follows: F21T 21-mer (5′-FAM-GGGTTAGGGTTAGGGTTAGGG-TAMRA-3′) (SEQ ID NO:11), c-kit2 26-mer (5′-FAM-CCCGGGCGGGCGCGAGGGAGGGGAGG-TAMRA-3′) (SEQ ID NO:12), k-RAS21R 21-mer (5′-FAM-AGGGCGGTGTGGGAAGAGGGA-TAMRA-3′) (SEQ ID NO:13), c-MYC 22-mer (5′-FAM-TGAGGGTGGGTAGGGTGGGTAA-TAMRA-3′) (SEQ ID NO:14) and duplex 26-mer (5′-FAM-TATAGCTATATTTTTTTATAGCTATA-TAMRA-3′) (SEQ ID NO: 15). Measurements were made in triplicate by using a LightCycler 480 System RT-PCR machine (Roche) and average values were reported. Fluorescence readings were made with excitation at 450-495 nm and detection at 515-545 nm, taken at intervals of 1.2° C./min in the range 25° C. to 95° C.

c-kit2 = experiment: FRET melting assay, c-kit2; format: binding; details: dual-labeled DNA 0.2 μM, DMZ analogues 1 μM, potassium cacodylate 60 mM pH 7.2
Method: as §4

F21T = experiment: FRET melting assay, F21T; format: binding; details: dual-labeled DNA 0.2 μM, DMZ analogues 1 μM, potassium cacodylate 60 mM pH 7.2
Method: as §4

duplex = experiment: FRET melting assay, duplex DNA; format: binding; details: dual-labeled DNA 0.2 μM, DMZ analogues 1 μM, potassium cacodylate 60 mM pH 7.2
Method: as §4

k-RAS21R = experiment: FRET melting assay, k-RAS21R; format: binding; details: dual-labeled DNA 0.2 μM, DMZ analogues 1 μM, potassium cacodylate 60 mM pH 7.2
Method: as §4

PC-3 = experiment: WST-1 IC50 determination, PC-3; format: cell-based, human; details: 72 hours, WST-1; for IC50: read-out: Anticancer activity IC50 ± SD, PC-3
Method: as §1, §2, §3

OVCAR-3 = experiment: WST-1 IC50 determination, OVCAR-3; format: cell-based, human; details: 72 hours, WST-1; for IC50: read-out: Anticancer activity IC50 ± SD, OVCAR-3
Method: as §1, §2, §3

SMILES	Anticancer activity IC50 ± SD, MDA-MB-231 (MDA-MB-231)	ΔTm c-MYC (c-MYC) [°C]	ΔTm c-kit2 (c-kit2) [°C]	ΔTm F21T (F21T) [°C]	ΔTm duplex (duplex)	ΔTm k-RAS21R (k-RAS21R) [°C]	Anticancer activity IC50 ± SD, PC-3 (PC-3)	Anticancer activity IC50 ± SD, OVCAR-3 (OVCAR-3)	IC50 (MDA-MB-231) [µM]	IC50 (PC-3) [µM]	IC50 (OVCAR-3) [µM]
N#Cc1cccc(NN=Nc2ccc(C(=N)N)cc2)c1 [DMZ4]	NE (NE means not effective. Cell viability was the same or greater than 75% of the DMSO control at 20 μM compound concentration.)	6.94 ± 0.26	6.22 ± 0.26	4.57 ± 0.26	NE (NE means not effective binding (ΔTm < 1° C.))	2.00 ± 0.45	NE (NE means not effective. Cell viability was the same or greater than 75% of the DMSO control at 20 μM compound concentration.)	NE (NE means not effective. Cell viability was the same or greater than 75% of the DMSO control at 20 μM compound concentration.)			
N#Cc1ccc(NN=Nc2ccc(C(=N)N)cc2)cc1 [DMZ2]	NE (NE means not effective. Cell viability was the same or greater than 75% of the DMSO control at 20 μM compound concentration.)	8.06 ± 0.68	5.30 ± 0.26	4.20 ± 0.00	NE (NE means not effective binding (ΔTm < 1° C.))	7.49 ± 0.00	NE (NE means not effective. Cell viability was the same or greater than 75% of the DMSO control at 20 μM compound concentration.)	NE (NE means not effective. Cell viability was the same or greater than 75% of the DMSO control at 20 μM compound concentration.)			
N=C(N)c1ccc(N=NNc2ccccc2C#Cc2ccccc2)cc1 [DMZ12]		7.15 ± 0.00	5.12 ± 0.26	4.20 ± 0.00	NE (NE means not effective binding (ΔTm < 1° C.))	2.19 ± 0.26			5.1 ± 0.4	5.3 ± 0.2	8.1 ± 0.5
Nc1cccc(C#Cc2ccc(F)cc2)c1 [compound 15, reference compound]	NE (NE means not effective. Cell viability was the same or greater than 75% of the DMSO control at 20 μM compound concentration.)						NE (NE means not effective. Cell viability was the same or greater than 75% of the DMSO control at 20 μM compound concentration.)	NE (NE means not effective. Cell viability was the same or greater than 75% of the DMSO control at 20 μM compound concentration.)			
N=C(N)c1ccc(N=NNc2cccc(C#Cc3ccccc3)c2)cc1 [DMZ7]		7.33 ± 0.26	6.40 ± 0.26	4.20 ± 0.00	NE (NE means not effective binding (ΔTm < 1° C.))	2.56 ± 0.00			9.5 ± 1.3	5.8 ± 0.2	6.5 ± 2.1
COc1ccc(C#Cc2cccc(NN=Nc3ccc(C(=N)N)cc3)c2)cc1 [DMZ10]		8.06 ± 0.26	5.48 ± 0.00	4.39 ± 0.26	NE (NE means not effective binding (ΔTm < 1° C.))	1.65 ± 0.26			5.5	5 ± 0.9	5.2 ± 0.4
N=C(N)c1ccc(N=NNc2cccc(C#Cc3ccccn3)c2)cc1 [DMZ8]		9.32 ± 0.00	8.04 ± 0.26	4.75 ± 0.00	NE (NE means not effective binding (ΔTm < 1° C.))	14.62 ± 0.45			14.4 ± 0.9	10.4 ± 1.4	10.7 ± 1.5
N=C(N)c1ccc(N=NNc2cccc(-c3ccccc3)c2)cc1 [DMZ6]	NE (NE means not effective. Cell viability was the same or greater than 75% of the DMSO control at 20 μM compound concentration.)	7.49 ± 0.26	5.48 ± 0.45	4.57 ± 0.26	NE (NE means not effective binding (ΔTm < 1° C.))	4.20 ± 0.90	NE (NE means not effective. Cell viability was the same or greater than 75% of the DMSO control at 20 μM compound concentration.)	NE (NE means not effective. Cell viability was the same or greater than 75% of the DMSO control at 20 μM compound concentration.)			
C#Cc1cccc(NN=Nc2ccc(C(=N)N)cc2)c1 [DMZ5]		7.51 ± 0.26	5.48 ± 0.45	4.39 ± 0.26	NE (NE means not effective binding (ΔTm < 1° C.))	6.39 ± 0.89			20.5 ± 4.2	18 ± 5.7	16.8 ± 3.1
N=C(N)c1ccc(N)cc1 [4-aminobenzamidine, reference compound]	NE (NE means not effective. Cell viability was the same or greater than 75% of the DMSO control at 20 μM compound concentration.)						NE (NE means not effective. Cell viability was the same or greater than 75% of the DMSO control at 20 μM compound concentration.)	NE (NE means not effective. Cell viability was the same or greater than 75% of the DMSO control at 20 μM compound concentration.)			
N=C(N)c1ccc(N=NNc2ccncc2)cc1 [DMZ14]	NE (NE means not effective. Cell viability was the same or greater than 75% of the DMSO control at 20 μM compound concentration.)	6.97 ± 0.26	6.58 ± 0.78	4.20 ± 0.00	NE (NE means not effective binding (ΔTm < 1° C.))	2.19 ± 0.26	NE (NE means not effective. Cell viability was the same or greater than 75% of the DMSO control at 20 μM compound concentration.)	NE (NE means not effective. Cell viability was the same or greater than 75% of the DMSO control at 20 μM compound concentration.)			
C#Cc1ccccc1NN=Nc1ccc(C(=N)N)cc1 [DMZ11]		8.77 ± 0.00	7.68 ± 0.00	4.20 ± 0.00	NE (NE means not effective binding (ΔTm < 1° C.))	2.19 ± 0.26			23.2	> 50	> 25
